This passage reports IC50 and fold change results from PubChem BioAssay AID1419 (Emory University Molecular Libraries Screening Center, 2008).

The test can be described thus: blockers of an Epstein-Barr virus protein-peptide interaction – biochemical, fluorescence polarization, dose response (AID 1419). The settings on record: cell-free protein-peptide binding, 2 h; for fold change: measured here: P channel fold over control, at 54 µM.

Calls of active or inactive are those of the source. The rule behind the calls is not given here.

Take `COc1ccc2c(c1)c1nc3ccccc3nc1n2CC(=O)OC(C)C`: the IC50 (usually the concentration needed to halve the response being measured) is 1.21 µM and the fold change is 6.79.

On to `C=CCn1c(CSc2nc3ccccc3s2)nnc1SCC(=O)NCc1ccco1`, for which the IC50 is > 54 µM (inactive) and the fold change turned out to be 0.923.

`Cc1nnc(NC(=O)CSc2cn(CCNC(=O)c3ccccc3)c3ccccc23)s1`: the IC50 was > 54 µM (inactive) and the fold change was 1.05.

As for `COCCOC(=O)c1sc(=S)n(CCOC)c1N`, the IC50 was 3.85 µM and the fold change stood at 2.45.

With `Cn1c(O)c(C=Nc2ccc(N3CCOCC3)cc2)c(=O)n(C)c1=S`, the IC50 is 18.9 µM and the fold change is 6.36.

Take `CCOC(=O)C(=O)/C(=C\N(C)C)c1onc(-c2ccccc2)c1C(=O)OC`: the IC50 was > 54 µM (inactive) and the fold change is 1.05.

Take `CCOC(=O)/C(=C/c1ccc(N2CCC(c3ccccc3)=N2)cc1)C(C)=O`: the IC50 was 3.78 µM and the fold change worked out at 11.8.

Take `CC(=O)Nc1ccc2nc3c(=O)n(C)c(=O)n(C)c3nc2c1`: the half-inhibitory concentration (IC50) was 1 µM and the fold change was 4.35.

As for `CC(=O)NC1C(OCCOc2ccc(Cl)cc2Cl)OC(COC(C)=O)C(OC(C)=O)C1OC(C)=O` (centres undefined), the IC50 is > 54 µM (inactive) and the fold change was found to be 1.04.

`CN(C)c1ccc2c3c(cccc13)C(=O)N(c1ccccc1)C2=O`: the IC50 was 4.05 µM and the fold change came out at 11.

Take `Cc1c2cc(O)c(=O)cc-2oc2cc(O)c(O)cc12`: the IC50 was 1 µM and the fold change is 236.

Take `COc1ccc(NC(=O)c2sc3nc(-c4cccnc4)ccc3c2N)cc1`: the IC50 was 2.44 µM and the fold change worked out at 6.91.

Take `CCn1cc(C(=O)NCc2ccccn2)c(=O)c2cc(S(=O)(=O)N3CCCCC3)ccc21`: the IC50 is 0.74 µM and the fold change came to 4.52.

Take `Cc1c(C#N)c2ncnc(-c3ccccc3)c2n1-c1ccccc1`: the IC50 was > 54 µM (inactive) and the fold change came to 1.02.

As to `O=C(c1ccc(Cl)cc1)C1C2C(=O)N(c3ccccc3)C(=O)C2C2CCCN21` (centres undefined), the IC50 is below 0.42 µM and the fold change was found to be 8.

Regarding `CCN(CC)c1ccc(/C=C(/C#N)c2nc3ccccc3[nH]2)c(OC(C)C)c1`, the IC50 is 10.7 µM and the fold change is 14.3.

For `N#Cc1c(C#N)c(O)c2ccccc2c1O`, the IC50 was 4.02 µM and the fold change came out at 3.34.

In the case of `Cc1noc(/C=C/c2ccc(-c3ccccc3Cl)o2)c1[N+](=O)[O-]`, the IC50 is 13.2 µM and the fold change is 7.6.

Regarding `Fc1ccccc1/C=N/Nc1ncnc2nc[nH]c12`, the IC50 was > 54 µM (inactive) and the fold change was determined as 1.17.

Turning to `Cc1ccc(CNC(=O)c2ccc(-n3cccc3)cc2)cc1`, the IC50 was > 54 µM (inactive) and the fold change came to 1.15.

As for `O=S(=O)(Nc1ccc2c(c1)OCCO2)c1cccc2cccnc12`, the IC50 is > 54 µM (inactive) and the fold change is 0.963.

As to `CC(=O)c1ccc(N2C(=O)C3C(C2=O)C(C(=O)c2ccc(Cl)cc2)N2CCCC32)cc1` (centres undefined), the IC50 is 7.19 µM and the fold change came to 8.74.

For the molecule `Cc1cc(/C=C2\SC(=S)N(Cc3ccco3)C2=O)c(C)n1-c1cccnc1`, the concentration for half-maximal inhibition (IC50) is 8.64 µM and the fold change was determined as 18.3.

Consider `CC(=O)Nc1ccc(NC2=Nc3ccccc3N3C2=Nc2c(c(C)nn2-c2ccccc2)C3c2ccccc2)cc1` (centres undefined), for which the IC50 was 4.1 µM and the fold change came to 3.9.

For the molecule `CN1CC=C2C(C#N)=C(N)C(C#N)(C#N)[C@H](c3cccc(Cl)c3)C2C1` (some centres undefined), the IC50 is 3.17 µM and the fold change was found to be 4.79.

In the case of `O=c1oc2c3c4c(cc2c(C(F)(F)F)c1CCN1CCOCC1)CCCN4CCC3`, the IC50 was below 0.42 µM and the fold change is 35.9.

With `CCCCCC(=O)N/N=C/c1ccc(N(C)C)cc1`, the IC50 was > 54 µM (inactive) and the fold change was determined as 1.05.

Take `COc1ccc(-n2c(C)cc(/C=C3\SC(=S)N(Cc4ccco4)C3=O)c2C)cc1`: the half-maximal inhibitory concentration (IC50) was 7.24 µM and the fold change is 5.18.

On to `COc1ccc(NC(=O)CCl)cn1`, for which the IC50 was 2.57 µM and the fold change is 2.89.

Take `CCOC(=O)C1CCN(C(=O)Nc2ccc3nc(-c4ccco4)c(-c4ccco4)nc3c2)CC1`: the IC50 is 5.89 µM and the fold change came out at 2.82.

As to `O=C(O)c1ccc2c3c(ncnc13)-c1ccccc1C2=O`, the IC50 is > 54 µM (inactive) and the fold change came to 1.83.

On to `Cc1ccc(S(=O)(=O)C(C#N)c2nc3ccccc3nc2N2CCCC2)cc1C` (centres undefined), for which the IC50 was > 54 µM (inactive) and the fold change was determined as 1.26.

Turning to `Cn1c(=O)c(NC2CCCCC2)c2c3c(cccc31)C(=O)c1ccccc1-2`, the IC50 is 0.88 µM and the fold change is 34.7.

Regarding `O=[N+]([O-])c1ccccc1/C=C/C=N/n1c(-c2ccc(Cl)cc2)n[nH]c1=S`, the IC50 is > 54 µM (inactive) and the fold change amounted to 0.947.

Take `CN(C)CCCN1C(=O)c2cccc3c([N+](=O)[O-])ccc(c23)C1=O`: the 50% inhibitory concentration (IC50) was 18 µM and the fold change worked out at 2.14.

For the molecule `N=C1/C(=C/c2ccc(-c3cccc(C(=O)O)c3)o2)C(=O)N=C2SC=C(c3ccccc3)N12`, the IC50 was 3.82 µM and the fold change is 1.36.

In the case of `COC(=O)c1cc2c(-c3ccccc3)cc3ccccn3c-2c1C(=O)OC`, the IC50 was 27 µM and the fold change amounted to 1.65.

`COc1ccc(C2CC(c3cccs3)=NN2c2ccc(C=O)cc2)cc1` (centres undefined): the IC50 is 16.2 µM and the fold change worked out at 15.4.

With `O=C(N=Nc1c(O)[nH]c2ccc([N+](=O)[O-])cc12)c1cc(-c2ccccc2Cl)nc2ccccc12`, the IC50 is 4.56 µM and the fold change turned out to be 1.03.

Turning to `COC(=O)c1cc2c(-c3ccccc3)c(C)c3ccccn3c-2c1C(=O)OC`, the IC50 is 9.93 µM and the fold change was 1.47.

Turning to `COc1ccc(N=Cc2cc(Cc3ccccc3Cl)cc([N+](=O)[O-])c2O)cc1OC`, the IC50 was 13.8 µM and the fold change was 2.41.

`CCCCOc1ccc(-c2cc(C(F)(F)F)c(C#N)c(SCC(=O)O)n2)cc1`: the IC50 is 6.68 µM and the fold change is 4.

On to `CCN(CC)CCN1C2=C(C(=O)CC(C)(C)C2)C(c2cccc(F)c2)C2=C1CC(C)(C)CC2=O`, for which the IC50 is > 54 µM (inactive) and the fold change turned out to be 1.03.

For `CCCCN1C(=O)/C(=C/C=C2\N(C)c3ccccc3C2(C)C)SC1=S`, the IC50 is 2.01 µM and the fold change is 18.6.

On to `COc1cc(C2C=C(c3cccs3)Nc3ncnn32)cc(OC)c1OC` (centres undefined), for which the IC50 was below 0.42 µM and the fold change was found to be 13.5.

On to `Cc1cccc(-n2c(SCc3cc(=O)n4ccsc4n3)nc3ccccc32)c1`, for which the IC50 was 2.79 µM and the fold change worked out at 1.78.

`CCCCN1C(=O)/C(=C/C=C2\Oc3ccccc3N2CC)SC1=S`: the concentration for half-maximal inhibition (IC50) was 5.36 µM and the fold change was 13.9.

`CC1=Nc2ccccc2/C1=C\c1nc(-c2ccc(F)cc2)oc1O`: the IC50 is 1.7 µM and the fold change was found to be 19.

On to `O=C(Cc1nc2ccccc2[nH]c1=O)c1ccccc1`, for which the IC50 was 9.54 µM and the fold change was 5.07.

Regarding `COc1ccc(C(=O)NC2(C(F)(F)F)C(=O)N(Cc3ccco3)C3=C2C(=O)CC(C)(C)C3)cc1OC` (centres undefined), the IC50 was > 54 µM (inactive) and the fold change is 1.14.

Take `O=C(COc1ccccc1Cl)c1ccc[nH]1`: the IC50 was > 54 µM (inactive) and the fold change is 1.08.

In the case of `CN(C)c1ccc(/C=c2/sc3n(c2=O)NC2(c4ccccc4)N(C)C(=O)N(C)C2(c2ccccc2)N=3)cc1` (centres undefined), the IC50 was > 54 µM (inactive) and the fold change was 5.21.

Turning to `O=C(CSc1ccccn1)Nc1ccc2c(c1)C(=O)c1ccccc1C2=O`, the half-maximal inhibitory concentration (IC50) was 19.4 µM and the fold change is 0.783.

On to `CC1CCc2cccc3c2N1c1cc(C#N)c(C#N)cc1O3` (centres undefined), for which the IC50 is 6.6 µM and the fold change is 8.38.

With `O=[N+]([O-])c1ccc(/C=C/c2nc3ccc([N+](=O)[O-])cc3[nH]2)cc1`, the IC50 is 2.48 µM and the fold change is 1.15.

On to `COc1ccc2ccccc2c1C(O)c1nccn1C` (centres undefined), for which the IC50 was 2.72 µM and the fold change came to 5.13.

As to `CN1C(=O)/C(=C\N2CCc3ccccc32)C(=O)NC1=S`, the IC50 was > 54 µM (inactive) and the fold change was determined as 1.14.

As for `CC(C)Oc1ccc(-c2nn(-c3ccccc3)cc2/C=c2\sc3ncnn3c2=O)cc1`, the IC50 is 1.43 µM and the fold change came to 14.3.

Consider `O=C(NCCCO)Nc1ccc2nc(-c3ccco3)c(-c3ccco3)nc2c1`, for which the IC50 is 4.06 µM and the fold change turned out to be 5.99.

As to `COc1ncnc2c1N=C1CC(C)(C)CC(N)=C1S2`, the IC50 was 2.31 µM and the fold change was 6.34.

For `Cc1ccccc1NC(=O)CSc1ccsc1[N+](=O)[O-]`, the IC50 was 15.2 µM and the fold change amounted to 1.04.

As for `COc1ccc(/C=C2\N=C(c3c(-c4ccccc4)noc3C)OC2=O)cc1OC`, the IC50 was 15.9 µM and the fold change is 3.56.

In the case of `COC(=O)c1cc(C(=O)c2ccc(Cl)cc2)n2c(=O)/c(=C\N(C)C)sc12`, the IC50 was 51.9 µM (inactive) and the fold change came out at 1.56.

Turning to `Cc1cc(C(F)(F)F)n2nc(-c3sccc3-n3cccc3)cc2n1`, the IC50 is > 54 µM (inactive) and the fold change came out at 0.957.

As for `Cc1cc(-c2cccs2)c2c(N)c(C(=O)c3ccc4c(c3)OCO4)sc2n1`, the half-maximal inhibitory concentration (IC50) is 5.56 µM and the fold change came to 6.29.

For `N#C/C(=C(/O)c1ccc(-c2cccc([N+](=O)[O-])c2)o1)c1nc2ccccc2s1`, the IC50 was 7.24 µM and the fold change came out at 1.09.

`Cn1c(=O)c2[nH]c(-c3ccccc3)c(O)c2n(C)c1=O`: the IC50 is below 0.42 µM and the fold change was determined as 6.43.
